Reference: ChEMBL document CHEMBL5465560, “Selectivity Literature for EUbOPEN Chemogenomic Library” (2024)

Key:
[1] = test system: Tyrosine-protein kinase ABL1 (Homo sapiens), P00519 [F317L]; test: Selectivity interaction (KinomeScan (DiscoverX)) EUB0000045b ABL1; details: at 1 µM
[2] = molecular target: Calcium/calmodulin-dependent protein kinase type 1 (Homo sapiens) (UniProt Q14012); test: Selectivity interaction (KinomeScan (DiscoverX)) EUB0001079a CAMK1; details: at 1 µM
[3] = molecular target: Casein kinase I isoform delta (Homo sapiens, UniProt P48730); test: Selectivity interaction (KinomeScan (DiscoverX)) EUB0001049a CSNK1D; details: at 1 µM
[4] = molecular target: Bone morphogenetic protein receptor type-1B (Homo sapiens, UniProt O00238); test: Selectivity interaction (KinomeScan (DiscoverX)) EUB0001049a BMPR1B; details: at 1 µM
[5] = molecular target: Epidermal growth factor receptor (Homo sapiens, UniProt P00533); test: Selectivity interaction (Millipore kinase profiler) EUB0000124b EGFR; details: at 10 µM
[6] = molecular target: T1, Ephrin type-B receptor 3 (Homo sapiens) (UniProt P54753); test: Selectivity interaction (Upstate Kinase Profiler service (Millipore)) EUB0000056c EPHB3; details: at 1 µM
T1 sequence (whole entry): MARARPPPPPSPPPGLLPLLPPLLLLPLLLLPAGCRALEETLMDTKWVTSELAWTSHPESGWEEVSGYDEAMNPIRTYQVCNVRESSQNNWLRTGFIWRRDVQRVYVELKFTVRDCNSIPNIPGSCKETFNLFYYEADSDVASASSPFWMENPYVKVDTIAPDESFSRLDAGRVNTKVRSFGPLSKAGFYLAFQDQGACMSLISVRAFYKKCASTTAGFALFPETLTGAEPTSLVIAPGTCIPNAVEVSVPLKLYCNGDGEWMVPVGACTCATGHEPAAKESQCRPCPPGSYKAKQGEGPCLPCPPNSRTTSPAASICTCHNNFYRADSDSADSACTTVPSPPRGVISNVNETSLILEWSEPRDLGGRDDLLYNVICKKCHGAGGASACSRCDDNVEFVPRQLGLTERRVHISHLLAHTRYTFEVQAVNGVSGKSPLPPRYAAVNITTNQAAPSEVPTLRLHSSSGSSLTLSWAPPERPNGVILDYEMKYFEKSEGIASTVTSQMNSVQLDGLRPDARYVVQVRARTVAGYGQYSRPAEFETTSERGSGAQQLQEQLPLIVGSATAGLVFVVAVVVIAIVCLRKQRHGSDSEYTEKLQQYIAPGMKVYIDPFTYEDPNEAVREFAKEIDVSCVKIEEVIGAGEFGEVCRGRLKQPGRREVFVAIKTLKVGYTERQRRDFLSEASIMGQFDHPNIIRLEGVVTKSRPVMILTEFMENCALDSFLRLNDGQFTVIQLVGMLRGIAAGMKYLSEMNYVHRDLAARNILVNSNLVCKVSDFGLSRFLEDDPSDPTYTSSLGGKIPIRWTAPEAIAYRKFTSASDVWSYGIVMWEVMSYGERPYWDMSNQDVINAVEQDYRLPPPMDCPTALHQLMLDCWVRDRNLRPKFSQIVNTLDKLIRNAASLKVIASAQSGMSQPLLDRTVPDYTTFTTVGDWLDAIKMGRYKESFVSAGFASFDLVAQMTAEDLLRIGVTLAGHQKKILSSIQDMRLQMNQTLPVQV

[7] = molecular target: MAP/microtubule affinity-regulating kinase 3 (Homo sapiens) (UniProt P27448); test: Selectivity interaction (Kinase panel (Carna Biosciences)) EUB0001542aTs MARK3; details: at 1 µM
[8] = molecular target: Serine/threonine-protein kinase B-raf (Homo sapiens) (UniProt P15056); test: Selectivity interaction (SelectScreen profiling (Invitrogen)) EUB0000607a BRAF; details: at 2 µM
[9] = molecular target: T2, Hormonally up-regulated neu tumor-associated kinase (Homo sapiens) (UniProt P57058); test: Selectivity interaction (KinomeScan (DiscoverX)) EUB0000618a HUNK; details: at 10 µM
T2 sequence (whole entry): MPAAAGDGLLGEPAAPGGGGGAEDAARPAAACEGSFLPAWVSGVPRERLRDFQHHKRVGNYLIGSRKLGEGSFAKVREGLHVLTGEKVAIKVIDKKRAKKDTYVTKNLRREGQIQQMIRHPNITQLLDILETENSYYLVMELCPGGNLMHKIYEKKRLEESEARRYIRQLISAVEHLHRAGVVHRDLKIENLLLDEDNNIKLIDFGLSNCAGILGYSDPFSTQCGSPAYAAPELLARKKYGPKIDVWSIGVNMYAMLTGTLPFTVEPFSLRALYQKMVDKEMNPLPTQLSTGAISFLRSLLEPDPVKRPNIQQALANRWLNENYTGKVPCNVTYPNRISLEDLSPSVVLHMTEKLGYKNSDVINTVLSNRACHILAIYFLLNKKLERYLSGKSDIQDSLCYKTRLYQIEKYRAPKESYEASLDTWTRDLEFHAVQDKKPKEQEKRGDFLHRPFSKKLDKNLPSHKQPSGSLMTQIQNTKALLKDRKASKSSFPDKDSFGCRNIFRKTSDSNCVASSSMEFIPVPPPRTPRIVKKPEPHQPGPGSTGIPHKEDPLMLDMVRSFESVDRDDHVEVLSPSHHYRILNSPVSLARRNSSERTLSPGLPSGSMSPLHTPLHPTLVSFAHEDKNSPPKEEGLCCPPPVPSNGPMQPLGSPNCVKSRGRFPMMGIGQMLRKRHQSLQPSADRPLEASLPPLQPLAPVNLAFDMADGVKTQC

[10] = molecular target: Cyclin-dependent kinase 16 (Homo sapiens) (UniProt Q00536); test: Selectivity interaction (KinomeScan (DiscoverX)) EUB0000618a CDK16; details: at 10 µM
[11] = molecular target: Serine/threonine-protein kinase PLK1 (Homo sapiens, UniProt P53350); test: Selectivity interaction (ActivX KiNativ screen (kinase selectivity in THP-1 cell lysates)) EUB0000639a PLK1; format: subcellular; details: lysate, at 5 µM
[12] = molecular target: Serine/threonine-protein kinase 24 (Homo sapiens) (UniProt Q9Y6E0); test: Selectivity interaction (ActivX KiNativ screen (kinase selectivity in THP-1 cell lysates)) EUB0000639a STK24; format: subcellular; details: lysate, at 0.04 µM

Sequence of Casein kinase I isoform delta (P48730 whole entry, looked up, canonical isoform): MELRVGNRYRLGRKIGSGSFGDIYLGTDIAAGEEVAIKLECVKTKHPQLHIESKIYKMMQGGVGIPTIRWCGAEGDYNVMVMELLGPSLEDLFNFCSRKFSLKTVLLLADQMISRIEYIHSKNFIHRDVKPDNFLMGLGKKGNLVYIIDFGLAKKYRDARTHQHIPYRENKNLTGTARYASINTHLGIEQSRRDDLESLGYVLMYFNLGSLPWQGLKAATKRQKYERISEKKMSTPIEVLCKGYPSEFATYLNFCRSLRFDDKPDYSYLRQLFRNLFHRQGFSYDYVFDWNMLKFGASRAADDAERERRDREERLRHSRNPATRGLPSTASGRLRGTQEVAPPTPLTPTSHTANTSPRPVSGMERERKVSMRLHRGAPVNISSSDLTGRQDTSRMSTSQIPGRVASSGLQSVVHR
Sequence of MAP/microtubule affinity-regulating kinase 3 (Homo sapiens) (P27448 whole entry, looked up): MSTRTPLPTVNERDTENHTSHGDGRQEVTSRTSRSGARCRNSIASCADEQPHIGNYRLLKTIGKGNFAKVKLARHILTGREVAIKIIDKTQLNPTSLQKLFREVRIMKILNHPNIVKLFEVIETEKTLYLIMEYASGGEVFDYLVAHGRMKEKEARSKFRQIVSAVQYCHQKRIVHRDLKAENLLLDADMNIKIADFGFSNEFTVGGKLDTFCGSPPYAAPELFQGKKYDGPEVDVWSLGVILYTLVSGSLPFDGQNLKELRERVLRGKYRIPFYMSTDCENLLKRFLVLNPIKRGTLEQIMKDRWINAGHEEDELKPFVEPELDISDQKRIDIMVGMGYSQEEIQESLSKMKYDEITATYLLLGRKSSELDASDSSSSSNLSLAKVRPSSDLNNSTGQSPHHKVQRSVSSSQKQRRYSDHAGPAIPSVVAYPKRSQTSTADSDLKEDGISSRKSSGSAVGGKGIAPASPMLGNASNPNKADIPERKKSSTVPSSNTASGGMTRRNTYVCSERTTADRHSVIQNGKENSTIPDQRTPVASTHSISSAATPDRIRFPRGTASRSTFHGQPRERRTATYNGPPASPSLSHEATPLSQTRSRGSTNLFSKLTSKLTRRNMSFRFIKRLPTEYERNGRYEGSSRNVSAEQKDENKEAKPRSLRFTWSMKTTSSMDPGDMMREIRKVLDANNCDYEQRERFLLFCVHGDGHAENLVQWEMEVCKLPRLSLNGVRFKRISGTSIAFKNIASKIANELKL
Sequence of Epidermal growth factor receptor (P00533 whole entry): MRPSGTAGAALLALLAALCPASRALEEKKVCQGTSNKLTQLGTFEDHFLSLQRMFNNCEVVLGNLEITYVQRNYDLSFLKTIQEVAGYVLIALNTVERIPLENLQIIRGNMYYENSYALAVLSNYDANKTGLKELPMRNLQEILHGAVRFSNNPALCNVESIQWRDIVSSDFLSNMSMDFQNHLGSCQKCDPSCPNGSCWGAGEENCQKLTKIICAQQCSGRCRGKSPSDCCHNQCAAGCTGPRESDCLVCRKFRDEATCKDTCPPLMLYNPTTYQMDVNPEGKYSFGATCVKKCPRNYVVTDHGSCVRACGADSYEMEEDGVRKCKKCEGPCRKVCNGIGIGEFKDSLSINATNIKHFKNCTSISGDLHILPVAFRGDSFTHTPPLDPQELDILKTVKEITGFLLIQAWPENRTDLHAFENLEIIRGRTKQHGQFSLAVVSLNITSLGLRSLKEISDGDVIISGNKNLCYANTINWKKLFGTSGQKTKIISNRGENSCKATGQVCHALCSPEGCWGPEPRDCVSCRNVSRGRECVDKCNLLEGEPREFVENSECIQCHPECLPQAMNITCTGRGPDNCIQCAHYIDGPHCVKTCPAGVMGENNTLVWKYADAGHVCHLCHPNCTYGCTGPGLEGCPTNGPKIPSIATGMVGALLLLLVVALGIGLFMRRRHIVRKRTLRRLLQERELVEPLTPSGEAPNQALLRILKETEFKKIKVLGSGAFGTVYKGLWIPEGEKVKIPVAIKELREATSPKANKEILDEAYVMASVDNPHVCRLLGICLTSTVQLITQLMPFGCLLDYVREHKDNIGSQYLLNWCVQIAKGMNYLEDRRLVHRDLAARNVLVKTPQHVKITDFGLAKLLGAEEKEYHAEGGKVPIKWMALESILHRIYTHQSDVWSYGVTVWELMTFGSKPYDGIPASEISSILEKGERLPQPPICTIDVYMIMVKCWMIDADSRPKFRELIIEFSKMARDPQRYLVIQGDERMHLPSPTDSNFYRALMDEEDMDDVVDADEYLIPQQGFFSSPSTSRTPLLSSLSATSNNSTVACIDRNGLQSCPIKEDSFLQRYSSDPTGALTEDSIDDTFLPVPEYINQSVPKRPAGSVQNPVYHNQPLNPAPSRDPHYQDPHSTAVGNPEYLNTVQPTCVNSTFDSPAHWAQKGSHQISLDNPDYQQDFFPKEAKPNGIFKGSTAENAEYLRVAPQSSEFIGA
Sequence of Cyclin-dependent kinase 16 (Homo sapiens) (Q00536 whole entry): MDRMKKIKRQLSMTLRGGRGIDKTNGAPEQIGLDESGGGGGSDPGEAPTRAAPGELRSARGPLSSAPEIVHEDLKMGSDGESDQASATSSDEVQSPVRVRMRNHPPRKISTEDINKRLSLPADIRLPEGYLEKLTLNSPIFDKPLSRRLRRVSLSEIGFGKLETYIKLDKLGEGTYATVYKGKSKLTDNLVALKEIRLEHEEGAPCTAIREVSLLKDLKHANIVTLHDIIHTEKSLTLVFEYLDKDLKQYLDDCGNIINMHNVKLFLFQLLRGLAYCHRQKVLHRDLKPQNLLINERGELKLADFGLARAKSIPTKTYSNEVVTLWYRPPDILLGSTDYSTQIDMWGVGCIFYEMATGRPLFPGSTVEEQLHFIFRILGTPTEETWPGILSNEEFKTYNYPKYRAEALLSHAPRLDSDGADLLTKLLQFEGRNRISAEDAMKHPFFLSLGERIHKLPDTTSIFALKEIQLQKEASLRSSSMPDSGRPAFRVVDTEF
Sequence of Calcium/calmodulin-dependent protein kinase type 1 (Homo sapiens) (Q14012 whole entry, looked up, canonical isoform): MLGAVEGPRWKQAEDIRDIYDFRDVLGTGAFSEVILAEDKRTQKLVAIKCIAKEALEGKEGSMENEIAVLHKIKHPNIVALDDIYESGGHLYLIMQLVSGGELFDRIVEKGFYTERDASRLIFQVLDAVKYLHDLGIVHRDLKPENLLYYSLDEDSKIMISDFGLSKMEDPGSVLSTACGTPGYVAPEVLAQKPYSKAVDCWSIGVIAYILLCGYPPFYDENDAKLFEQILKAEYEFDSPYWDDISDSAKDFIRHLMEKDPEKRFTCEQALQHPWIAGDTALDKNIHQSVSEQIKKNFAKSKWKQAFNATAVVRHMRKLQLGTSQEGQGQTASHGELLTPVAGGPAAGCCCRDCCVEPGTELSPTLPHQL
Sequence of Bone morphogenetic protein receptor type-1B (O00238 whole entry): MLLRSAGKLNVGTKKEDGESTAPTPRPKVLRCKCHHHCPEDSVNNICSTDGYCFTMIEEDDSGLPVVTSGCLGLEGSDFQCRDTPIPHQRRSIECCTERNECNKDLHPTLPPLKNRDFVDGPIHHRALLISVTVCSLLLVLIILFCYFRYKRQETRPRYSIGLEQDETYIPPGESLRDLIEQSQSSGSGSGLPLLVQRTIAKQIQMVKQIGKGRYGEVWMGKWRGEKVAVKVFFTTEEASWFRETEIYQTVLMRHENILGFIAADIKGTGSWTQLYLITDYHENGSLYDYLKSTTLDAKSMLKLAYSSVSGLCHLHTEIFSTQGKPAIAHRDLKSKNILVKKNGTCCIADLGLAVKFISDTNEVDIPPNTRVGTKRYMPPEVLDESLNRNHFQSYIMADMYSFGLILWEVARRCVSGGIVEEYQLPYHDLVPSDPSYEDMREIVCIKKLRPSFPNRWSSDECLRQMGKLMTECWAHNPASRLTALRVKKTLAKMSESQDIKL
Sequence of Tyrosine-protein kinase ABL1 (Homo sapiens), P00519 [F317L] (P00519 whole entry F317L): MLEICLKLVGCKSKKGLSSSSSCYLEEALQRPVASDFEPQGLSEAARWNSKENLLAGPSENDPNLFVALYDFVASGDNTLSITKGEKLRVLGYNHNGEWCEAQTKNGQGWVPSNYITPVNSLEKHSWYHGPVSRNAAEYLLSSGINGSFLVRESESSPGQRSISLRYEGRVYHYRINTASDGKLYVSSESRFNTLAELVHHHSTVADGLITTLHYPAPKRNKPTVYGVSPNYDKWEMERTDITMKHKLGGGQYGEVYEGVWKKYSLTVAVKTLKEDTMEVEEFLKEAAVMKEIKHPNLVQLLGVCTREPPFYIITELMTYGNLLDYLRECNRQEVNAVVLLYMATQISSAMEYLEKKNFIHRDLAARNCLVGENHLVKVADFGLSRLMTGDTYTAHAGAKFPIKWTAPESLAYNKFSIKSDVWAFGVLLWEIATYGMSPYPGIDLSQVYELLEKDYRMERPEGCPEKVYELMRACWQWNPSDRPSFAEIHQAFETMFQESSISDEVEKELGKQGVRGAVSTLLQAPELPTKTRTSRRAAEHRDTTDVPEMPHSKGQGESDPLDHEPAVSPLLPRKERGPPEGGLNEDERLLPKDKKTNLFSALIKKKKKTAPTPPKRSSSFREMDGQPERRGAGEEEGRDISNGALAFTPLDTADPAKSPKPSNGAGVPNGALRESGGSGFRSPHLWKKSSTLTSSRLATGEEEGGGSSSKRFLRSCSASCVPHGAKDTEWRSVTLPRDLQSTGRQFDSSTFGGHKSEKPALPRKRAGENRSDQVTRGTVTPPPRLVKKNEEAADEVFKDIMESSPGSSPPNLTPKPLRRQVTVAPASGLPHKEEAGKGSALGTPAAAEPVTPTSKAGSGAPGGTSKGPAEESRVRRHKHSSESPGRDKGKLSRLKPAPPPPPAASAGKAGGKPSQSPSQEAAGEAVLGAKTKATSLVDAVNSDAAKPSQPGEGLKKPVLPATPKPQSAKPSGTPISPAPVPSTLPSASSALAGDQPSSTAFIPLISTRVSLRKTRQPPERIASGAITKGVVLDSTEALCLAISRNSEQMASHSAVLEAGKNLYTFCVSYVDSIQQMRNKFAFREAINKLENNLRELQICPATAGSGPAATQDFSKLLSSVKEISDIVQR

C=CC(=O)Nc1cc(-n2c(=O)ccc3cnc4ccc(-c5ccc(NS(C)(=O)=O)cc5)cc4c32)ccc1C
% of control [1]: 100%

Nc1cnc(N2CCc3cc(S(=O)(=O)Nc4c(F)cc(Cl)cc4F)cc(N4CCCC4=O)c32)nc1 [TP-020n]
% of control [2]: 88%

COc1cc(Nc2nc(C)cc(-c3cnn4nc(OC)ccc34)n2)cc(C(F)(F)F)c1
% of control [3]: 90%
% of control [4]: 81%

CC(=O)Nc1cccc(-n2c(=O)n(C3CC3)c(=O)c3c(Nc4ccc(I)cc4F)n(C)c(=O)c(C)c32)c1
% of control [5]: 104%

Cc1ccc(-c2ccc3c(ccc4sc5c(c43)NC[C@@H](C)NC5=O)n2)cn1
% of inhibition [6]: -22%

Cn1cc(Nc2nccc(N3CC4CCC(C3)N4C(=O)[C@@H]3CC3(F)F)n2)cn1
% of inhibition [7]: 50%

CNC(=O)Nc1ccc(-c2nc(N3CC4CCC(C3)O4)c3cnn(C4CCC5(CC4)OCCO5)c3n2)cc1
% of inhibition [8]: -16%

O[C@H]1CC[C@H](Nc2ncc3nc(Nc4c(F)cc(F)cc4F)n([C@H]4CCOC4)c3n2)CC1
% of control [9]: 89%
% of control [10]: 100%

CC[C@@H]1[C@H](F)C(=O)N[C@@H]1COc1nccc2cc(C(N)=O)c(OC)cc12 [ZIMLOVISERTIB]
% of inhibition [11]: 12.2%
% of inhibition [12]: 13.3%
